Measured values taken from US4713453A, “Oxabicycloheptane derivatives” (Suntori Limited, priority 1986, dated 1987).

Legend:
peroxylipid formation = experiment: Anti-lipidperoxidation effect (TBA assay of malondialdehyde in rat brain homogenate); type: biochemical, rat (male Wistar); settings: for Inhibition of peroxylipid formation: 10 μl (10^-4 M) test compound in 990 μl sample, 37° C., 30 minutes, pH 7.4; for anti-lipidperoxidation effects: rat brain homogenate
Experimental: 3. Anti-lipidperoxidation effect
Male Wistar rats weighing 200-250 g were used. The brain of each rat was extracted after decapitation, homogenized with 50 mM of a phosphate buffer solution (PBS, pH 7.4) and centrifuged at 1,000 g for 15 minutes. The supernatant was stored frozen at -30° C. Before use, it was thawed under flowing water and diluted with PBS three-fold to prepare a live sample.
Two samples were prepared by adding 10 μl (10^-4 M) of a test compound in solution to 990 μl of the live sample. One sample was incubated at 37° C. for 30 minutes and reaction was quenched by addition of 0.2 ml of 35% aqueous perchloric acid. The other sample was immediately mixed with 35% perchloric acid without incubation. Each of the mixtures was centrifuged at 3,000 rpm for 15 minutes and 0.5 ml of the supernatant was subjected to TBA assay (Yagi et al., Anal. Biochem., 95, 351 (1979)) for determining the malondialdehyde (MDA) content (×10^-4 M) by subtracting the peroxylipid level for the unincubated mixture from that for the incubated mixture. The percent inhibition of peroxylipid formation was calculated by the following formula: [formula] where A is the MDA content of a treated sample and B is the value for a control sample that was not treated with any test compound.

Male ddY mice [1] = experiment: Anti-cerebroischemic effect (brain protection after ischemia by decapitation): gasping time; type: in vivo, mouse (male ddY); settings: intraperitoneal, 30 min before decapitation
Experimental: 1. Anti-cerebroischemic effect (i.e., brain protection after ischemia by decapitation)
Male ddY mice weighing 22-30 g were used in groups each consisting of 6 animals. Test compounds were administered intraperitoneally to the mice which were decapitated 30 minutes after the administration. The gasping time, or the duration of time between the onset of panting after decapitation and its cessation, was measured, and this was compared with the gasping time for a control group which were given only a liquid vehicle.

Male ddY mice [2] = experiment: Anti-hypoxia effect (brain protection in low-oxygen state after evacuation): survival time; type: in vivo, mouse (male ddY); settings: intraperitoneal, 180 mmHg
Experimental: 2. Anti-hypoxia effect (i.e., […] protection in low-oxygen state after evacuation)
Male ddY m8mice weighing 22-30 g were used in groups each consisting of 7-10 animals. The mice were placed in a desiccator (capacity: ca. 1,000 ml) which was evacuated with a vacuum pump to an internal pressure of 180 mmHg after intraperitoneal administration of test compounds. The survival time, or the duration of time between the start of evacuation and the cessation of breathing, was measured, and this was compared with the value for a vehicle group. Any survival time longer than a period of 15 minutes after application of a hypoxia load was counted as 15 minutes.

[3] = test system: scopolamine amnesia mouse; experiment: Anti-amnesia effect (scopolamine-induced retrograde amnesia), step-through passive avoidance; type: in vivo, mouse (male ddY); settings: ip, 24 h, significant prolongation of step-through latency, intraperitoneal, scopolamine 0.5 mg/kg s.c., read-out: Minimum effective amount
Experimental: 6a. Anti-amnesia effect (i.e., capability of preventing scopolamine-inducedretrograde amnesia)
Five-week old male ddY weighing 25-30 g were used in groups each consisting of 10 animals. Memory retention deficit induced by scopolamine was evaluated by two-compartment step-through passive avoidance task. […] The floor of the dark compartment was provided with a current-conducting grid.
The experimental method was as follows. A scopolamine amnesia mouse that had been given subcutaneous injection of 0.5 mg/kg of an aqueous solution of scopolamine borate 20 minutes before was placed in the light compartment and when its forefeet touched the grid floor of the dark compartment, a current of 0.6 mA was applied to give a foot shock to the mouse (acquired conation). Immediately thereafter, a selected test compound or a control (physiological saline solution) was administered intraperitoneally. Twenty-four hours later, the mouse was replaced in the light compartment and the step-through latency, or the time required for the mouse to move to the dark compartment, was measured for a period of up to 300 seconds (test conation). The minimum effective amount of the test compound that provided a significant prolongation of the step-through latency over the control was determined.

CN(C)CCON=C1c2ccccc2OC2(c3ccccc3)CC12 (stereo not shown) [Example 1, 3,4-Benzo-5-(2-dimethylaminoethyl)oxyimino-1-phenyl-2-oxabicyclo[4.1.0]heptane]
Inhibition of peroxylipid formation (peroxylipid formation): 56.9%
prolongation of gasping time (Male ddY mice [1]; 25 mg/kg): significantly prolonging the gasping time

CC(CON=C1c2ccccc2OC2(c3ccccc3)CC12)CN(C)C (stereo not shown) [Example 4, 3,4-Benzo-5-(3-dimethylamino-2-methylpropyl)-oxyimino-1-phenyl-2-oxabicyclo[4.1.0]heptane]
Inhibition of peroxylipid formation (peroxylipid formation): 56.0%
prolongation of survival time (Male ddY mice [2]; 12.5 mg/kg): significantly prolonging the survival time

c1ccc(C23CC2C(=NOCCC24CCCN2CCC4)c2ccccc2O3)cc1 (stereo not shown) [Example 5, 3,4-Benzo-5-(2-pyrrolizidin-8-ylethyl)oxyimino-1-phenyl-2-oxabicyclo[4.1.0]heptane]
Inhibition of peroxylipid formation (peroxylipid formation): 96.5%
anti-lipidperoxidation effects (peroxylipid formation): strong anti-lipidperoxidation effects
prolongation of survival time (Male ddY mice [2]; 12.5 mg/kg): significantly prolonging the survival time

COc1ccc2c(c1)OC1(c3ccccc3)CC1C2=NOCCN(C)C (stereo not shown) [Example 7, 3,4-(3-Methoxybenzo)-5-(2-dimethylaminoethyl)oxyimino-1-phenyl-2-oxabicyclo[4.1.0]heptane]
prolongation of gasping time (Male ddY mice [1]; 25 mg/kg): significantly prolonging the gasping time
minimal effective dose [3]: 20 mg/kg

CN(C)CCON=C1c2ccc(Cl)cc2OC2(c3ccccc3)CC12 (stereo not shown) [Example 8, 3,4-(3-Chlorobenzo)-5-(2-dimethylaminoethyl)oxaimino-1-phenyl-2-oxabicyclo[4.1.0]heptane]
Inhibition of peroxylipid formation (peroxylipid formation): 90.2%
anti-lipidperoxidation effects (peroxylipid formation): strong anti-lipidperoxidation effects
prolongation of gasping time (Male ddY mice [1]; 25 mg/kg): significantly prolonging the gasping time

CN(C)CCCON=C1c2ccc(Cl)cc2OC2(c3ccccc3)CC12 (stereo not shown) [Example 9]
Inhibition of peroxylipid formation (peroxylipid formation): 82.7%
anti-lipidperoxidation effects (peroxylipid formation): strong anti-lipidperoxidation effects
prolongation of gasping time (Male ddY mice [1]; 25 mg/kg): significantly prolonging the gasping time

CN(C)CCCON=C1c2ccccc2OC2(c3cccs3)CC12 (stereo not shown) [Example 11, 3,4-Benzo-5-(3-dimethylaminopropylo)xyimino-1-thienyl-2-oxabicyclo[4.1.0]heptane]
prolongation of survival time (Male ddY mice [2]; 12.5 mg/kg): significantly prolonging the survival time

CN(C)CCCON=C1c2ccc(Cl)cc2OC2(c3ccc([N+](=O)[O-])cc3)CC12 (stereo not shown) [Example 12, 3,4-(3-Chlorobenzo)-5-(3-dimethylaminopropyl)oxyimino-1-(4-nitrophenyl)-2-oxabicyclo[4.1.0]heptane]
Inhibition of peroxylipid formation (peroxylipid formation): 99.0%
anti-lipidperoxidation effects (peroxylipid formation): strong anti-lipidperoxidation effects

CNCCCON=C1c2ccccc2OC2(c3ccccc3)CC12 (stereo not shown) [Example 15, 3,4-Benzo-5-(3-methylaminopropyl)oxyimino-1-phenyl-2-oxabicyclo[4.1.0]heptane]
Inhibition of peroxylipid formation (peroxylipid formation): 85.7%
anti-lipidperoxidation effects (peroxylipid formation): strong anti-lipidperoxidation effects
prolongation of survival time (Male ddY mice [2]; 12.5 mg/kg): significantly prolonging the survival time

CCN(CC)CCCON=C1c2ccccc2OC2(c3ccccc3)CC12 (stereo not shown) [Example 16]
Inhibition of peroxylipid formation (peroxylipid formation): 83.3%
anti-lipidperoxidation effects (peroxylipid formation): strong anti-lipidperoxidation effects

CN(C)CCCCON=C1c2ccccc2OC2(c3ccccc3)CC12 (stereo not shown) [Example 19, 3,4-Benzo-5-(4-dimethylaminobutyl)oxyimino-1-phenyl-2-oxabicyclo[4.1.0]heptane]
Inhibition of peroxylipid formation (peroxylipid formation): 52.6%

CNCCCCON=C1c2ccccc2OC2(c3ccccc3)CC12 (stereo not shown) [Example 20, 3,4-Benzo-5-(4-methylaminobutyl)oxyimino-1-phenyl-2-oxabicyclo[4.1.0]heptan]
prolongation of gasping time (Male ddY mice [1]; 25 mg/kg): significantly prolonging the gasping time

CN(C)CCCCCON=C1c2ccccc2OC2(c3ccccc3)CC12 (stereo not shown) [Example 21, 3,4-Benzo-5-(5-dimethylaminopentyl)oxyimino-1-phenyl-2-oxabicyclo[4.1.0]heptane]
Inhibition of peroxylipid formation (peroxylipid formation): 62.1%
prolongation of gasping time (Male ddY mice [1]; 12.5 mg/kg): significant prolongation of the gasping time
prolongation of gasping time (Male ddY mice [1]; 25 mg/kg): significantly prolonging the gasping time
prolongation of survival time (Male ddY mice [2]; 12.5 mg/kg): significantly prolonging the survival time
minimal effective dose [3]: 25 mg/kg

CN(C)CCOC1c2ccccc2OC2(c3ccccc3)CC12 (stereo not shown) [Example 23, 3,4-Benzo-5-(2-dimethylaminoethyl)oxy-1-phenyl-2-oxabicyclo[4.1.0]heptane]
prolongation of gasping time (Male ddY mice [1]; 12.5 mg/kg): significant prolongation of the gasping time
prolongation of gasping time (Male ddY mice [1]; 25 mg/kg): significantly prolonging the gasping time
minimal effective dose [3]: 50 mg/kg

CN(C)CCCOC1c2ccccc2OC2(c3ccccc3)CC12 (stereo not shown) [Example 24, 3,4-Benzo-5-(3-dimethylaminopropyl)oxy-1-phenyl-2-oxabicyclo[4.1.0]heptane]
prolongation of gasping time (Male ddY mice [1]; 12.5 mg/kg): significant prolongation of the gasping time
prolongation of gasping time (Male ddY mice [1]; 25 mg/kg): significantly prolonging the gasping time

CN(C)CCOC1c2ccc(Cl)cc2OC2(c3ccccc3)CC12 (stereo not shown) [Example 26, 3,4-(3-Chlorobenzo)-5-(2-dimethylaminoethyl)oxy-1-phenyl-2-oxabicyclo[4.1.0]heptane]
Inhibition of peroxylipid formation (peroxylipid formation): 79.1%
prolongation of gasping time (Male ddY mice [1]; 25 mg/kg): significantly prolonging the gasping time

CN(C)CCCOC1c2ccc(Cl)cc2OC2(c3ccccc3)CC12 (stereo not shown) [Example 27, 3,4-(3-Chlorobenzo)-5-(3-dimethylaminopropyl)oxy-1-phenyl-2-oxabicyclo[4.1.0]heptane]
Inhibition of peroxylipid formation (peroxylipid formation): 62.0%
prolongation of gasping time (Male ddY mice [1]; 12.5 mg/kg): significant prolongation of the gasping time
prolongation of gasping time (Male ddY mice [1]; 25 mg/kg): significantly prolonging the gasping time

COc1ccc2c(c1)OC1(c3ccccc3)CC1C2OCCN(C)C (stereo not shown) [Example 28, 3,4-(3-Methoxybenzo)-5-(2-dimethylaminoethyl)oxy-1-phenyl-2-oxabicyclo[4.1.0]heptane]
Inhibition of peroxylipid formation (peroxylipid formation): 77.6%
prolongation of gasping time (Male ddY mice [1]; 12.5 mg/kg): significant prolongation of the gasping time
prolongation of gasping time (Male ddY mice [1]; 25 mg/kg): significantly prolonging the gasping time
minimal effective dose [3]: 12.5 mg/kg

CN(C)CCCCOC1c2ccccc2OC2(c3ccccc3)CC12 (stereo not shown) [Example 30, 3,4-Benzo-5-(4-dimethylaminobutyl)oxy-1-phenyl-2-oxabicyclo[4.1.0]heptane]
prolongation of gasping time (Male ddY mice [1]; 25 mg/kg): significantly prolonging the gasping time
prolongation of survival time (Male ddY mice [2]; 6.25 mg/kg or smaller): significant prolongation of the survival time
prolongation of survival time (Male ddY mice [2]; 12.5 mg/kg): significantly prolonging the survival time
minimal effective dose [3]: 12.5 mg/kg

CN(C)CCCCCCOC1c2ccccc2OC2(c3ccccc3)CC12 (stereo not shown) [Example 31]
prolongation of survival time (Male ddY mice [2]; 6.25 mg/kg or smaller): significant prolongation of the survival time
prolongation of survival time (Male ddY mice [2]; 12.5 mg/kg): significantly prolonging the survival time

CN(C)CCCON=C1c2ccc(O)cc2OC2(c3ccccc3)CC12 (stereo not shown) [Example 34, 3,4-(3-Hydroxybenzo)-5-(3-dimethylaminopropyl)oxyimino-1-phenyl-2-oxabicyclo[4.1.0]heptane]
Inhibition of peroxylipid formation (peroxylipid formation): 79.9%

CN(C)CCCOC1c2ccc(O)cc2OC2(c3ccccc3)CC12 (stereo not shown) [Example 35, 3,4-(3-Hydroxybenzo)-5-(3-dimethylaminopropyl)oxy-1-phenyl-2-oxabicyclo[4.1.0]heptane]
Inhibition of peroxylipid formation (peroxylipid formation): 69.0%
